In the assay the test system is 958667-338-R-J2-PDC tumor spheroids viability. Description: Anticancer human tumor 958667-338-R-J2-PDC patient-derived colon adenocarcinoma cell line growth inhibition [PI3K]. The following applies: spheroids with HUVEC and MSC; for viability, T/C: stronger effect = lower value. The source says:
Combinatorial screen of targeted agents with the PI3K inhibitors inavolisib, alpelisib, duvelisib, and copanlisib in multi-cell type tumor spheroids
A high-throughput screen of multi-cell type tumor spheroids was designed to identify active combinations of targeted small molecules and PI3K pathway inhibitors. Complex spheroids include a stromal component modeled by human endothelial cells (HUVEC) and fibroblasts modeled by human mesenchymal stem cells (MSCs). The concentration ranges selected for each drug and investigational agent were based upon clinically achievable concentrations if the clinical Cmax of the agent was known.
Compounds. The drugs and investigational agents: inavolisib (NSC800729), alpelisib (NSC765974), duvelisib (NSC772469), copanlisib (NSC816437), ipatasertib (NSC767898), afuresertib (NSC778305), talazoparib (NSC767125), sapanisertib (NSC764658), selumetinib (NSC741078), tovorafenib (DAY101, NSC766906), vemurafenib (NSC761431), ravoxertinib (NSC781343), sotorasib (NSC818433), MRTX1133 (NSC 836407), abemaciclib (NSC 768073), palbociclib (NSC758247), venetoclax (NSC 766270), SY5609 (NSC837396), enzalutamide (NSC755605), and darolutamide (NSC825331), were obtained from the National Cancer Institute (NCI) Developmental Therapeutics Program Chemical Repository. The FDA-approved anticancer drug set is available from the NCI Developmental Therapeutics Program. […] The stock solutions were prepared in dimethyl sulfoxide (DMSO, Sigma-Aldrich, St. Louis, MO, cat. D2650) at 800-fold the tested concentration and stored at -70 degrees C prior to their use. All drugs and investigational agents were tested over a range starting from a high concentration at or near the clinical Cmax and decreasing in half-log increments. If the clinical Cmax for an agent had not been determined, the highest concentration tested was 10 microM.
Cell Culture. All cells were maintained in an incubator at 37 degrees C and 5% CO2 with 95% humidity. The PDC lines were cultured according to standard operating procedures established by the NCI PDMR (https://pdmr.cancer.gov/sops/default.htm). All PDCs were thawed and cultured in Matrigel-coated flasks prepared with a working solution of 1X Ham's F-12 nutrient mix, without supplementation (Invitrogen, Waltham, MA, cat. 11765054), 100 U/mL penicillin-streptomycin (Invitrogen, cat. 15140122), and 2.5% Matrigel (Corning Inc., Corning, NY, cat. 354248) for the first three passages. The 354836-022-R-J1-PDC, 475296-252-R-J1-PDC, and 997726-040-R-J2-PDC lines were cultured in 6A media, which includes advanced DMEM/F-12 (Thermo Fisher Scientific, cat. 12634028), 10 mM HEPES (Thermo Fisher Scientific, cat. 15630080), 1X GlutaMAX supplement (Thermo Fisher Scientific, cat. 35050061), 0.1 mg/mL primocin (InvivoGen, San Diego, CA, cat. ant-pm-2), 10% defined fetal bovine serum, heat inactivated (HyClone Laboratories Inc., Logan, UT, cat. SH30070.03HI), 50% L-WRN conditioned media (ATCC, cat. CRL-3276), 1.25 mM N-Acetyl-L-cysteine (Sigma-Aldrich, cat. A9165), 10 mM nicotinamide (Sigma-Aldrich, cat. N0636), 1X B-27 supplement (Thermo Fisher Scientific, cat. 17504044), 1X N-2 supplement (Thermo Fisher Scientific, cat. 17502048), and 10 microM Y-27632 dihydrochloride (Tocris Bioscience, Bristol, United Kingdom, cat. 1254). The 624824-186-R-J2-PDC line was cultured in 6C/Colon 1B media, which includes all 6A media components plus 50 ng/mL human EGF recombinant protein (Thermo Fisher Scientific, cat. PHG0311). […]

Usually IC50 stands for the concentration that inhibits the measured activity by half. For orientation: viability, T/C means the result in the treated group divided by that in the control group, in per cent.
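Further: spheroids exposed to compounds for seven days before readout.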

As for `CC(=O)c1c(C)c2cnc(Nc3ccc(N4CCNCC4)cn3)nc2n(C2CCCC2)c1=O` + CC(Nc1ncnc2nc[nH]c12)c1cc2cccc(Cl)c2c(=O)n1-c1ccccc1, the IC50 is, setting by setting: (curve of first compound, second compound 0.0316 µM) greater than 0.1 µM; (curve of first compound, second compound 0.1 µM) greater than 0.1 µM; (curve of first compound, second compound 0.316 µM) greater than 0.1 µM; (curve of first compound, second compound 1 µM) greater than 0.1 µM; (curve of first compound, second compound 3.16 µM) greater than 0.1 µM; (curve of first compound, second compound 10 µM) greater than 0.1 µM. Moreover, the viability, T/C is 106% (second compound 0.0316 µM, first compound 0.000316 µM); 101% (second compound 0.0316 µM, first compound 0.001 µM); 95.3% (second compound 0.0316 µM, first compound 0.00316 µM); 117% (second compound 0.0316 µM, first compound 0.01 µM); 90.2% (second compound 0.0316 µM, first compound 0.0316 µM); 91.6% (second compound 0.0316 µM, first compound 0.1 µM). The viability, T/C (second compound 0.1 µM, first compound 0.000316 µM) is 117%; the viability, T/C (second compound 0.1 µM, first compound 0.001 µM) was 103%; the viability, T/C (second compound 0.1 µM, first compound 0.00316 µM) was 89.2%; the viability, T/C (second compound 0.1 µM, first compound 0.01 µM) is 96.8%; the viability, T/C (second compound 0.1 µM, first compound 0.0316 µM) was 105%; the viability, T/C (second compound 0.1 µM, first compound 0.1 µM) was 74.4%. The viability, T/C is 98.6% (second compound 0.316 µM, first compound 0.000316 µM); 89.5% (second compound 0.316 µM, first compound 0.001 µM); 91.3% (second compound 0.316 µM, first compound 0.00316 µM); 103% (second compound 0.316 µM, first compound 0.01 µM); 118% (second compound 0.316 µM, first compound 0.0316 µM); 83.1% (second compound 0.316 µM, first compound 0.1 µM). Moreover, the viability, T/C was 99.3% (second compound 1 µM, first compound 0.000316 µM); 126% (second compound 1 µM, first compound 0.001 µM); 95.4% (second compound 1 µM, first compound 0.00316 µM); 106% (second compound 1 µM, first compound 0.01 µM); 104% (second compound 1 µM, first compound 0.0316 µM); 87.9% (second compound 1 µM, first compound 0.1 µM). In addition, the viability, T/C is 108% (second compound 3.16 µM, first compound 0.000316 µM); 71.5% (second compound 3.16 µM, first compound 0.001 µM); 118% (second compound 3.16 µM, first compound 0.00316 µM); 97.5% (second compound 3.16 µM, first compound 0.01 µM); 97% (second compound 3.16 µM, first compound 0.0316 µM); 95.7% (second compound 3.16 µM, first compound 0.1 µM). In addition, the viability, T/C is 103% (second compound 10 µM, first compound 0.000316 µM); 79.5% (second compound 10 µM, first compound 0.001 µM); 95% (second compound 10 µM, first compound 0.00316 µM); 101% (second compound 10 µM, first compound 0.01 µM); 90.4% (second compound 10 µM, first compound 0.0316 µM); 67.6% (second compound 10 µM, first compound 0.1 µM).
In the case of `Cn1nccc1Nc1nccc(-c2ccn(C(CO)c3ccc(Cl)c(F)c3)c(=O)c2)n1` (stereo not drawn), the viability, T/C runs as follows: (compound 0.0316 µM) 102% [middle of 4 runs]; (compound 0.316 µM) 95.4% [middle of 4 runs]; (compound 1 µM) 86.6% [middle of 4 runs]; (compound 3.16 µM) 89.5% [middle of 4 runs]. For the same compound, where the note is “curve of compound”, the IC50 is greater than 10 µM.
In the case of `Cn1ncnc1[C@H]1c2n[nH]c(=O)c3cc(F)cc(c23)N[C@@H]1c1ccc(F)cc1`, the viability, T/C runs as follows: (compound 0.000316 µM) 115% [middle of 4 runs]; (compound 0.001 µM) 110% [middle of 4 runs]; (compound 0.00316 µM) 97.5% [middle of 4 runs]; (compound 0.0316 µM) 103% [middle of 4 runs]; (compound 0.1 µM) 99.1% [middle of 4 runs]. Moreover, the IC50 (curve of compound) is greater than 0.1 µM.

For the origin of these results see PubChem BioAssay AID1963963 (Molecular Pharmacology Branch, DTP, NCI, 2024).
